The test system of data set [1] is CS-induced ALI mice. Put plainly: CS-induced lung injury model: in vivo cytokine assay by ELISA in BALF. The arrangement: species or system Balb/c mice. To be noted: p<0.01. On the procedure: Model preparation: The mice were randomly divided into 5 groups (12 mice in each group), which were the control group (the mice were exposed to fresh air), the saline group (the mice were exposed to cigarette smoke), dexamethasone (Dex) group (1 mg/kg) (the mice were exposed to cigarette smoke), CT-NA 10 mg/kg group and CT-NA 30 mg/kg group (the mice were exposed to cigarette smoke). According to the grouping, the mice were intragastrically administered saline, Dex and CT-NA, respectively. […] 24 hrs after the last exposure to the cigarette smoke, the partial pressure of oxygen (PO2) of all mice was measured by the Moor VMS-OXY™ measuring instrument, which was used to measure the oxygenated/deoxygenated hemoglobin concentration and oxygen saturation (percentage) in the microcirculation at the wavelength range of 500 to 650 nm. […] The expression levels of pro-inflammatory cytokines (TNF-α, IL-1β, IL-6), chemokines (KC) and anti-inflammatory cytokines (IL-10) in the BALF supernatant were determined using respective ELISA determination kits according to the instruction manual. After the optical density at 450 nm was measured, the expression of cytokines was calculated via the standard curve.
On the technique in general: An ELISA detects its analyte on a solid surface through an enzyme-linked reagent.

Data set [2] concerns LPS-induced ALI mice. Put plainly: LPS-induced ALI model: pro-inflammatory cytokines and chemokines in BALF by ELISA. To be noted: CT-NA 10 or 30 mg/kg, Dex 1 mg/kg, dose-dependent, P<0.05 or P<0.01. The data set is classed as in vivo, Balb/c mice. As to the method: Specific pathogen-free (SPF) Balb/c mice (♂/♀; 20-26 g; 8 weeks old) were purchased from Shanghai SIPPR-BK Experimental Animal Co., Ltd. Mice were kept in an isolated ventilated cage in an environment of 40-60% humidity, 24±2° C., and 12 hrs/12 hrs dark-light cycle, and had free access to food and water. The method for preparing the LPS-induced ALI model was simply described as follows. The mice were randomly divided into a control group (12 mice) and an LPS group (48 mice). The LPS group (48 mice) was further divided into four subgroups (12 mice in each subgroup). The unanaesthetized mice in the four subgroups of LPS were intragastrically administered with normal saline (NS), CT-NA at 10 mg/kg or 30 mg/kg, and Dex at 1 mg/kg, respectively. […] 24 hrs after LPS challenge, the oxygen saturation (SO2) of all mice was measured by a Moor VMS-OXY™ instrument which measured SO2 (%) in the microcirculation at the wavelength range of 500 to 650 nm. […]
The expression levels of pro-inflammatory cytokines (TNF-α, IL-1β, IL-6), and chemokines (KC, mouse IL-8 homolog) in the BALF supernatant were determined by using respective ELISA determination kits according to the instruction manual. After measurements of the optical density at 450 nm, the expression level was calculated via the standard curves.

Data set [3] can be described thus: Dissolution test of capsules (Chinese Pharmacopoeia 2015, General Method 0931, 2nd Method). The data set is classed as physicochemical. As to the method: The hydrates obtained hereinabove and the compound of formula A were tested for dissolution rate. The test method was as follows.
Step 1: Pretreating Raw Materials
The samples were passed through a 100 mesh sieve.
Step 2: Blending Raw Materials with Auxiliary Materials
The raw materials and lactose were weighed according to the prescription, mixed in equal increment, sieved and mixed.
The capsules were filled via a capsule filling plate and sealed. The difference of the filling amount was controlled to ±5%. The appearance was inspected to ensure that the sealing was correct and there was no split or deformation.
Test method: dissolution test method (Chinese Pharmacopoeia, edited in 2015, Chapter 4, General Method 0931, the 2nd Method)
Dissolution medium: aqueous solution
Specific test method: The sample was tested following the dissolution test method (Chinese Pharmacopoeia, edited in 2015, Chapter 4, General Method 0931, the 2nd Method). 900 ml aqueous solution was used as the dissolution medium. The speed was 50 rpm. The test was performed in accordance with the method. […] After filtration, the filtrate was precisely measured and quantitatively diluted with the dissolution medium to prepare a solution containing about 10 μg of sample per 1 ml. The absorbance was measured by at 231 nm by UV-Vis spectrophotometry (Chinese Pharmacopoeia, edited in 2015, Chapter 4, General Method 0931, the 2nd Method). An appropriate amount of the control sample was taken, weighed accurately, dissolved in dissolution medium and diluted quantitatively to prepare a solution containing about 10 μg of the sample per 1 ml, and then measured in the same way. The amount of dissolution per capsule was calculated.

One compound from patent US20220098197A1, “SALTS OF HETEROCYCLIC COMPOUND AND USE THEREOF” (priority 2019, published 2022) can be followed below.

Where “and” joins values, the source holds several entries; their conditions need not be identical. Identical values can stand only once.

For the compound `CN([C@@H]1CCc2c(CC(=O)[O-])c3cccnc3n2C1)S(=O)(=O)c1ccc(F)cc1.[Na+]` [Sodium salt hydrate], the “CS-induced overexpression of TNF-α, IL-1β, IL-6 and KC in BALF” value in data set [1] (CT-NA 10 and 30 mg/kg intragastric) is “effectively reduced”. For the same compound, in data set [1] (CT-NA treatment), the “CS-induced inhibition of IL-10 in BALF” value is listed as “reversed”. In data set [2], the “production of IL-1β, TNF-α, IL-6 and KC in BALF” value is on record as “effectively reduced”. The “Dissolution rate, Mean (%), 5 min” value in data set [3] (mean of 6 capsules, purified water, 50 rpm, 5 min) is 50.5%. In addition, the “Dissolution rate, Mean (%), 10 min” value in data set [3] (mean of 6 capsules, purified water, 50 rpm, 10 min) amounted to 76.6%. For the same compound, the “Dissolution rate, Mean (%), 15 min” value in data set [3] (mean of 6 capsules, purified water, 50 rpm, 15 min) turned out to be 92.1%. Further, in data set [3] (mean of 6 capsules, purified water, 50 rpm, 20 min), the “Dissolution rate, Mean (%), 20 min” value was 98.6%. The “Dissolution rate, Mean (%), 30 min” value in data set [3] (mean of 6 capsules, purified water, 50 rpm, 30 min) is reported as 100.6%. For the same compound, the “Dissolution rate, Mean (%), 45 min” value in data set [3] (mean of 6 capsules, purified water, 50 rpm, 45 min) came to 100.8%. In data set [3] (same method, aqueous dissolution medium), the “dissolution rate (in words)” value was “best dissolution rate”. The “Dissolution rate, 5 min” value in data set [3] (single capsules 1-6, purified water, 50 rpm, 5 min, hydrate) was 55.8% and 34.3% and 57.9% and 45.5% and 56.7% and 52.8%. In data set [3] (single capsules 1-6, purified water, 50 rpm, 10 min, hydrate), the “Dissolution rate, 10 min” value was 77.8% and 82.6% and 69.0% and 73.6% and 62.2% and 94.6%. Also, in data set [3] (single capsules 1-6, purified water, 50 rpm, 15 min, hydrate), the “Dissolution rate, 15 min” value is 96.6% and 79.1% and 91.7% and 93.3% and 99.1% and 92.7%. In addition, in data set [3] (single capsules 1-6, purified water, 50 rpm, 20 min, hydrate), the “Dissolution rate, 20 min” value is 101.8% and 94.8% and 96.2% and 98.3% and 100.1% and 100.2%. The “Dissolution rate, 30 min” value in data set [3] (single capsules 1-6, purified water, 50 rpm, 30 min, hydrate) is 103.4% and 100.7% and 98.0% and 99.1% and 102.2% and 100.2%. The “Dissolution rate, 45 min” value in data set [3] (single capsules 1-6, purified water, 50 rpm, 45 min, hydrate) is 102.8% and 101.5% and 97.5% and 99.7% and 102.7% and 100.9%.
